From article PMC5428663, “Identification of small molecule inhibitors of Interleukin-18” (Scientific Reports, 2017)

Experiments:
[1] = molecular target: T1, hIL-18:ectvIL-18BP complex (Homo sapiens, UniProt Q14116); assay: biochemical; format: binding, human; ectromelia virus; conditions: for IC50: 5% DMSO, read-out: IC50, inhibition of hIL-18:ectvIL-18BP complex formation
T1 construct: Mature human IL-18 was cloned into a modified pET vector containing a C-terminal 6x His tag; 6x His (C); made in house; host or cells: E. coli BL21 gold (DE3) with biotin ligase for hIL-18; E. coli BL21 (DE3) Rosetta-Gami 2 for MBP-ectvIL-18BP
T1 sequence (Q14116 37-193): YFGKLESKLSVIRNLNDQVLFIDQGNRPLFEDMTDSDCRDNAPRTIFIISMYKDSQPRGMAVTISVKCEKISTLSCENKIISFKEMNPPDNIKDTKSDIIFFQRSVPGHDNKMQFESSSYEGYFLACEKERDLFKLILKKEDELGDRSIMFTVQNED

[2] = system: hIL-18 induced IFN-γ production in human KG-1 cells; assay: IFN-γ bioassay (hIL-18 induced IFN-γ production in KG-1 cells); format: cell-based; conditions: for inhibition of hIL-18 activities (IFN-γ secretion): KG-1 cells, 1 uM inhibitor, increasing hIL-18 (Fig. 4)

Row | SMILES | Ki [1] [nM] | fold difference of calculated Ki (ELISA) vs predicted Autodock Ki [1] | IC50 [1] [nM] | inhibition of hIL-18 activities (IFN-γ secretion) [2] | EC50 ([2]; Homo sapiens, KG-1 cells 1 × 10^6 cells ml^−1, constant hIL-18, 24 hr, read-out: EC50, inhibition of hIL-18 induced IFN-γ production) [nM]
1 | CCOC(=O)c1ccc(Nc2sc(C(=O)c3cccc([N+](=O)[O-])c3)c(N)c2C#N)cc1 [NSC201631, ethyl 4-[[4-amino-3-cyano-5-(3-nitrobenzoyl)thiophen-2-yl]amino]benzoate] | 1600 | approximately 2 fold | 44000 | did not inhibit hIL-18 activities | 
2 | O=C(Nc1cccc(-c2nc3ccccc3[nH]2)c1)c1ccc(C(=O)Nc2cccc(-c3nc4ccccc4[nH]3)c2)cc1 [NSC61610, 1-N,4-N-bis[3-(1H-benzimidazol-2-yl)phenyl]benzene-1,4-dicarboxamide] | 200 | approximately 2 fold | 6000 | small inhibitory effect | 
3 | N#Cc1ccc(NC(=O)Nc2ccc(Oc3ccc(NC(=O)Nc4ccc(C#N)cc4)cc3)cc2)cc1 [NSC80734, 1-(4-cyanophenyl)-3-[4-[4-[(4-cyanophenyl)carbamoylamino]phenoxy]phenyl]urea] | 1800 | approximately 4 fold | 52000 | best inhibition | ~250
